For ten compounds, IC50 and inhibition results are on record in patent US10899737B2, “Piperazine carbamates and methods of making and using same” (Lundbeck La Jolla Research Center, Inc., priority 2016, dated 2021).

The target of assay [1] is T1, ABHD6 (Homo sapiens, UniProt Q9BV23).
T1 construct: Proteomes (human prefrontal cortex or cell membrane fractions); endogenous in cells; human prefrontal cortex
T1 sequence (Q9BV23 1-337): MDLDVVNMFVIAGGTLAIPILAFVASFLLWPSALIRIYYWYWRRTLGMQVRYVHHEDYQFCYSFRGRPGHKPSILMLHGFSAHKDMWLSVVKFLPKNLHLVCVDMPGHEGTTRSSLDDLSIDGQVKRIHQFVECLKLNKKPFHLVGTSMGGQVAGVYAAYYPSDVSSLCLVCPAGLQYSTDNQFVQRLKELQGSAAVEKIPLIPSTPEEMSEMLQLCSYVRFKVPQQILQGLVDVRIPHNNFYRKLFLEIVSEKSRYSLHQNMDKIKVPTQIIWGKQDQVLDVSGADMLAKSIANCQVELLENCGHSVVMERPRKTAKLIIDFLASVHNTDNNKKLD
Nature of the assay: In vitro competitive activity-based protein profiling (human), ABHD6. Format: biochemical. Particulars: human PC3. Put shortly: (§1)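 Human prefrontal cortex or cell membrane proteomes (1.0-2.0 mg/mL protein) preincubated 30 min at 37° C with inhibitor, then labeled 30 min RT with FP-Rh or JW912 probe. After SDS-PAGE, activity taken from fluorescent band intensity for each enzyme.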

In assay [2] the target is T2, MAGL (Mus musculus, UniProt O35678).
T2 construct: Proteomes (mouse brain membrane fraction or cell lysates); from tissue; host or cells: mouse brain membrane fraction or cell lysates
T2 sequence (O35678 1-303): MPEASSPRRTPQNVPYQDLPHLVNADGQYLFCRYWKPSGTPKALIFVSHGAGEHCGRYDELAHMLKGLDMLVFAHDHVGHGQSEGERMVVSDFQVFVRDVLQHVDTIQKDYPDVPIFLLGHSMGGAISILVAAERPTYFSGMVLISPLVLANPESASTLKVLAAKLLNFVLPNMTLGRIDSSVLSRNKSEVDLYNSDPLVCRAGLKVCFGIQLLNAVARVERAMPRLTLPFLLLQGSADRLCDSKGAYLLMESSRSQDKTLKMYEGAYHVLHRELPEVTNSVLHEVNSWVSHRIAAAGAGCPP
The assay can be described thus: Mouse brain proteomes from inhibitor treated mice, MAGL inhibition. Format: in vivo. Particulars: 5 mg/kg oral gavage, C57Bl/6J mouse brain, 4 h following administration; read-out: MAGL % inh. 5 mg/kg (mouse). The protocol: Preparation of Mouse Brain Proteomes from Inhibitor Treated Mice.
Inhibitors were administered to wild-type C57Bl/6J by oral gavage in a vehicle of polyethylene glycol. Each animal was sacrificed 4 h following administration and brain proteomes were prepared and analyzed according to previously established methods (See Niphakis, M. J., et al. (2011) ACS Chem. Neurosci. and Long, J. Z., et al. Nat. Chem. Biol. 5:37-44).

Assay [3] has as its target T3, MAGL (Homo sapiens, UniProt Q99685).
T3 construct: Proteomes (human prefrontal cortex or cell membrane fractions); from tissue
T3 sequence (Q99685 1-303): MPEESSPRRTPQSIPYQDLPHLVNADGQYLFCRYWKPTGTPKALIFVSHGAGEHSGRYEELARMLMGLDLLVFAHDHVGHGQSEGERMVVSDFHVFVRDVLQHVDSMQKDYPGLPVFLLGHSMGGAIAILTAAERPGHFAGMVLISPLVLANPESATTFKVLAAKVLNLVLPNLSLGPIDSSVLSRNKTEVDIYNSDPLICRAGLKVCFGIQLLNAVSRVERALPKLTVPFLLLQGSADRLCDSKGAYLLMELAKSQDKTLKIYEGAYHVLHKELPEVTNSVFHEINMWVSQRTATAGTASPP
Nature of the assay: In vitro competitive activity-based protein profiling (human), MAGL. Particulars: for inhibition at 1 µM: 1 μM inhibitor, human proteome, 30 min preincubation at 37° C, read-out: MAGL % inh. 1 μM (human); for IC50: human PC3. The assay is classed as biochemical. Put shortly: as §1

Assay [4] deals with T4, ABHD6 (Mus musculus, UniProt Q8R2Y0).
T4 construct: Proteomes (mouse brain membrane fraction or cell lysates); from tissue; host or cells: mouse brain membrane fraction or cell lysates
T4 sequence (Q8R2Y0 1-336): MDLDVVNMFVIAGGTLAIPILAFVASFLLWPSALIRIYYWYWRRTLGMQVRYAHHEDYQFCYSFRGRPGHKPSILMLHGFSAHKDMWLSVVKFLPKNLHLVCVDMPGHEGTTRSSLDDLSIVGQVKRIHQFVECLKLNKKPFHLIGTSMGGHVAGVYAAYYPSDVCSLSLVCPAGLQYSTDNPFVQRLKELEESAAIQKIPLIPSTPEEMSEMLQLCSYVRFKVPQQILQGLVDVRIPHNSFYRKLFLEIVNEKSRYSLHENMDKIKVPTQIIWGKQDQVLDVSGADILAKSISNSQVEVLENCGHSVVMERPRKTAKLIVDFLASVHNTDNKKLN
Nature of the assay: In vitro competitive activity-based protein profiling (mouse), ABHD6. Format: biochemical. Particulars: 1 μM inhibitor, mouse brain membrane fraction or cell lysates; read-out: ABHD6 % inh. 1 μM (mouse). Put shortly:
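Mouse brain membrane proteome or cell lysate (1.0 mg/mL protein) preincubated 30 min at 37 °C with inhibitor, then labelled 30 min at 37 °C with FP-rhodamine probe. Remaining MAGL and ABHD6 activity quantified by in-gel fluorescence band intensity after SDS-PAGE; values are % inhibition at 1 μM.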

Assay [5] deals with T2, MAGL. Nature of the assay: In vitro competitive activity-based protein profiling (mouse), MAGL. Format: biochemical. Particulars: for inhibition at 1 µM: 1 μM inhibitor, mouse brain membrane fraction or cell lysates, read-out: MAGL % inh. 1 μM (mouse); for IC50: mouse proteome. Put shortly: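 Mouse brain membrane fraction or cell lysate proteomes (50 μL, 1.0 mg/mL total protein) were preincubated with inhibitors at varying concentrations for 30 min at 37° C. FP-Rh (1.0 μL, 50 μM in DMSO) was then added for a further 30 min at 37° C. Samples were quenched with 4× SDS loading buffer and resolved by SDS-PAGE. MAGL activity was quantified from fluorescent gel band intensity using ImageJ 1.49 k.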

A value given as a limit tells only on which side of the number the result lay.

As a reminder, the IC50 is the concentration needed to halve the response being measured. A low value points to greater potency. Take `O=C(O)CN1CC2CN(c3cc(C(F)(F)F)ccc3CN3CCN(C(=O)OC(C(F)(F)F)C(F)(F)F)CC3)CC2C1` (stereo not shown) [Example 15, 2-(5-(2-((4-(((1,1,1,3,3,3-Hexafluoropropan-2-yl)oxy)carbonyl)piperazin-1-yl)methyl)-5-(trifluoromethyl)phenyl)hexahydropyrrolo[3,4-c]pyrrol-2(1H)-yl)acetic Acid]: the figures for the IC50 on ABHD6 [1] and on MAGL [3] were 1 to 10 µM and at most 0.1 µM, respectively. Moreover, the inhibition at 5 mg/kg at MAGL [2] lay within 0 to 25%. Besides, the results for the inhibition at 1 µM on MAGL [3], at ABHD6 [4] and at MAGL [5] were at least 75%, 0 to 25% and at least 75%, respectively.
For the compound `O=C(O)CN1CCC2(CC1)CN(c1cc(C(F)(F)F)ccc1CN1CCN(C(=O)OC(C(F)(F)F)C(F)(F)F)CC1)C2` [Example 17, 2-(2-(2-((4-(((1,1,1,3,3,3-Hexafluoropropan-2-yl)oxy)carbonyl)piperazin-1-yl)methyl)-5-(trifluoromethyl)phenyl)-2,7-diazaspiro[3.5]nonan-7-yl)acetic Acid], the results for the half-inhibitory concentration (IC50) at ABHD6 [1] and at MAGL [3] were 1 to 10 µM and at most 0.1 µM, respectively. Besides, on MAGL [2], the inhibition at 5 mg/kg was 0 to 25%. The inhibition at 1 µM is at least 75% on MAGL [3], 0 to 25% on ABHD6 [4] and at least 75% on MAGL [5].
Turning to `O=C(O)CN1CCC2(CCN(c3cc(C(F)(F)F)ccc3CN3CCN(C(=O)OC(C(F)(F)F)C(F)(F)F)CC3)CC2)C1` [Example 18, 2-(8-(2-((4-(((1,1,1,3,3,3-Hexafluoropropan-2-yl)oxy)carbonyl)piperazin-1-yl)methyl)-5-(trifluoromethyl)phenyl)-2,8-diazaspiro[4.5]decan-2-yl)acetic Acid], the IC50 at ABHD6 [1] is 1 to 10 µM; on MAGL [3] it was at most 0.1 µM; at MAGL [5] it was at most 0.1 µM. In addition, the inhibition at 5 mg/kg on MAGL [2] was in the range of 0 to 25%. Also, the inhibition at 1 µM was at least 75% at MAGL [3], 50 to 75% on ABHD6 [4] and at least 75% on MAGL [5].
In the case of `O=C(O)CN1CCC2(CC1)CCN(c1cc(C(F)(F)F)ccc1CN1CCN(C(=O)OC(C(F)(F)F)C(F)(F)F)CC1)C2` [Example 19, 2-(2-(2-((4-(((1,1,1,3,3,3-Hexafluoropropan-2-yl)oxy)carbonyl)piperazin-1-yl)methyl)-5-(trifluoromethyl)phenyl)-2,8-diazaspiro[4.5]decan-8-yl)acetic Acid], the half-inhibitory concentration (IC50) at ABHD6 [1] was 1 to 10 µM; on MAGL [3] it was at most 0.1 µM; on MAGL [5], at most 0.1 µM. Besides, on MAGL [2], the inhibition at 5 mg/kg lay in the range of 0 to 25%. In addition, the inhibition at 1 µM was at least 75% on MAGL [3], 0 to 25% on ABHD6 [4] and at least 75% on MAGL [5].
As for `O=C(O)CN1CCCC12CCN(c1cc(C(F)(F)F)ccc1CN1CCN(C(=O)OC(C(F)(F)F)C(F)(F)F)CC1)CC2` [Example 20, 2-(8-(2-((4-(((1,1,1,3,3,3-Hexafluoropropan-2-yl)oxy)carbonyl)piperazin-1-yl)methyl)-5-(trifluoromethyl)phenyl)-1,8-diazaspiro[4.5]decan-1-yl)acetic Acid], the IC50 was 1 to 10 µM on ABHD6 [1] and at most 0.1 µM at MAGL [3]. Moreover, the inhibition at 5 mg/kg at MAGL [2] lay in the range of 0 to 25%. In addition, the inhibition at 1 µM is at least 75% at MAGL [3], 0 to 25% at ABHD6 [4] and at least 75% on MAGL [5].
As to `O=C(O)CN1CC2(CCN(c3cc(C(F)(F)F)ccc3CN3CCN(C(=O)OC(C(F)(F)F)C(F)(F)F)CC3)CC2)C1` [Example 21, 2-(7-(2-((4-(((1,1,1,3,3,3-Hexafluoropropan-2-yl)oxy)carbonyl)piperazin-1-yl)methyl)-5-(trifluoromethyl)phenyl)-2,7-diazaspiro[3.5]nonan-2-yl)acetic Acid], the IC50 is 1 to 10 µM at ABHD6 [1], at most 0.1 µM at MAGL [3] and at most 0.1 µM on MAGL [5]. For the same compound, on MAGL [2], the inhibition at 5 mg/kg was in the range of 0 to 25%. Moreover, the inhibition at 1 µM is at least 75% at MAGL [3], 0 to 25% on ABHD6 [4] and at least 75% at MAGL [5].
In the case of `O=C(O)CN1CC2(CCN(c3cc(C(F)(F)F)ccc3CN3CCN(C(=O)OC(C(F)(F)F)C(F)(F)F)CC3)C2)C1` [Example 22, 2-(6-(2-((4-(((1,1,1,3,3,3-Hexafluoropropan-2-yl)oxy)carbonyl)piperazin-1-yl)methyl)-5-(trifluoromethyl)phenyl)-2,6-diazaspiro[3.4]octan-2-yl)acetic Acid], the figures for the IC50 at ABHD6 [1] and on MAGL [3] were 1 to 10 µM and at most 0.1 µM, respectively. For the same compound, the inhibition at 5 mg/kg on MAGL [2] fell in the range of 0 to 25%. Besides, the inhibition at 1 µM was at least 75% on MAGL [3], 0 to 25% at ABHD6 [4] and at least 75% on MAGL [5].
As to `O=C(O)CN1CCC2(C1)CN(c1cc(C(F)(F)F)ccc1CN1CCN(C(=O)OC(C(F)(F)F)C(F)(F)F)CC1)C2` [Example 23, 2-(2-(2-((4-(((1,1,1,3,3,3-Hexafluoropropan-2-yl)oxy)carbonyl)piperazin-1-yl)methyl)-5-(trifluoromethyl)phenyl)-2,6-diazaspiro[3.4]octan-6-yl)acetic Acid], the IC50 on ABHD6 [1] was 1 to 10 µM; on MAGL [3], at most 0.1 µM. Besides, the inhibition at 5 mg/kg on MAGL [2] is 0 to 25%. For the same compound, the inhibition at 1 µM on MAGL [3] is at least 75%; at ABHD6 [4] it was 0 to 25%; at MAGL [5], at least 75%.
As for `O=C(O)CN1CCCC12CN(c1cc(C(F)(F)F)ccc1CN1CCN(C(=O)OC(C(F)(F)F)C(F)(F)F)CC1)C2` [Example 24, 2-(2-(2-((4-(((1,1,1,3,3,3-Hexafluoropropan-2-yl)oxy)carbonyl)piperazin-1-yl)methyl)-5-(trifluoromethyl)phenyl)-2,5-diazaspiro[3.4]octan-5-yl)acetic Acid], the values for the IC50 at ABHD6 [1], on MAGL [3] and at MAGL [5] were 1 to 10 µM, at most 0.1 µM and at most 0.1 µM, respectively. Further, the inhibition at 5 mg/kg on MAGL [2] was at least 75%. Also, the figures for the inhibition at 1 µM on MAGL [3], at ABHD6 [4] and at MAGL [5] were at least 75%, 0 to 25% and at least 75%, respectively.
For `O=C(O)CN1CC2CC1CN2c1cc(C(F)(F)F)ccc1CN1CCN(C(=O)OC(C(F)(F)F)C(F)(F)F)CC1` (stereo not shown) [Example 25, 2-(5-(2-((4-(((1,1,1,3,3,3-Hexafluoropropan-2-yl)oxy)carbonyl)piperazin-1-yl)methyl)-5-(trifluoromethyl)phenyl)-2,5-diazabicyclo[2.2.1]heptan-2-yl)acetic Acid], the results for the IC50 on ABHD6 [1] and on MAGL [3] were 1 to 10 µM and at most 0.1 µM, respectively. On MAGL [2], the inhibition at 5 mg/kg was 0 to 25%. Besides, the values for the inhibition at 1 µM on MAGL [3], at ABHD6 [4] and at MAGL [5] were at least 75%, 0 to 25% and at least 75%, respectively.
